Test results taken from patent publication US10501425B2, “Microbiocidal oxadiazole derivatives” (SYNGENTA PARTICIPATIONS AG, priority 2015, dated 2019).

Experiments:
[1] = test system: Glomerella lacenarium (Colletotrichum lagenarium); assay: Glomerella lagenarium liquid culture / cucumber / preventative (anthracnose); assay type: cell-based; conditions: Colletotrichum orbiculare; 20 ppm in the applied formulation; liquid culture (PDB), growth inhibition measured photometrically 3 to 4 days after application; compared to untreated; read-out: disease control
Experimental: Mycelia fragments or conidia suspensions of a fungus prepared either freshly from liquid cultures of the fungus or from cryogenic storage, are directly mixed into nutrient broth. DMSO solutions of the test compound (max. 10 mg/ml) are diluted with 0.025% Tween20 by a factor of 50 and 10 μl of this solution is pipetted into a microtiter plate (96-well format). The nutrient broth containing the fungal spores/mycelia fragments is then added to give an end concentration of the tested compound. The test plates are incubated in the dark at 24° C. and 96% relative humidity. The inhibition of fungal growth is determined photometrically after 2 to 7 days, depending on the pathosystem, and percent antifungal activity relative to the untreated check is calculated.
Conidia of the fungus from cryogenic storage are directly mixed into nutrient broth (PDB—potato dextrose broth). After placing a (DMSO) solution of test compound into a microtiter plate (96-well format), the nutrient broth containing the fungal spores is added.
The following compounds at 20 ppm in the applied formulation give at least 80% disease control in this test when compared to untreated control under the same conditions, which show extensive disease development.

[2] = test system: Puccinia recondita f. Sp. Tritici; assay: Puccinia recondita f. sp. tritici / wheat / leaf disc preventative (brown rust); assay type: in vivo; conditions: foliar, 200 ppm in the applied formulation, wheat leaf segments cv. Kanzler, preventative (inoculated 1 day after application), compared to untreated, read-out: disease control
Experimental: Leaf disks or leaf segments of various plant species are cut from plants grown in a greenhouse. The cut leaf disks or segments are placed in multiwell plates (24-well format) onto water agar. The leaf disks are sprayed with a test solution before (preventative) or after (curative) inoculation. Compounds to be tested are prepared as DMSO solutions (max. 10 mg/ml) which are diluted to the appropriate concentration with 0.025% Tween20 just before spraying. The inoculated leaf disks or segments are incubated under defined conditions (temperature, relative humidity, light, etc.) according to the respective test system. A single evaluation of disease level is carried out 3 to 14 days after inoculation, depending on the pathosystem. Percent disease control relative to the untreated check leaf disks or segments is then calculated. Wheat leaf segments cv. Kanzler were placed on agar in multiwell plates (24-well format) and sprayed with the formulated test compound diluted in water. The leaf disks were inoculated with a spore suspension of the fungus 1 day after application. The inoculated leaf segments were incubated at 19° C. and 75% relative humidity (rh) under a light regime of 12 hours light/12 hours darkness in a climate cabinet and the activity of a compound was assessed as percent disease control compared to untreated when an appropriate level of disease damage appears in untreated check leaf segments (7 to 9 days after application). The following compounds at 200 ppm in the applied formulation give at least 80% disease control in this test when compared to untreated control leaf disks under the same conditions, which show extensive disease development.

[3] = test system: Puccinia recondita f. Sp. Tritici; assay: Puccinia recondita f. sp. tritici / wheat / leaf disc curative (brown rust); assay type: in vivo; conditions: foliar, 24 h, 200 ppm in the applied formulation, wheat leaf segments cv. Kanzler, curative (applied 1 day after inoculation), compared to untreated, read-out: disease control
Experimental: (§1) Leaf disks or leaf segments of various plant species are cut from plants grown in a greenhouse. The cut leaf disks or segments are placed in multiwell plates (24-well format) onto water agar. The leaf disks are sprayed with a test solution before (preventative) or after (curative) inoculation. Compounds to be tested are prepared as DMSO solutions (max. 10 mg/ml) which are diluted to the appropriate concentration with 0.025% Tween20 just before spraying. The inoculated leaf disks or segments are incubated under defined conditions (temperature, relative humidity, light, etc.) according to the respective test system. A single evaluation of disease level is carried out 3 to 14 days after inoculation, depending on the pathosystem. Percent disease control relative to the untreated check leaf disks or segments is then calculated.
Wheat leaf segments cv. Kanzler are placed on agar in multiwell plates (24-well format). The leaf segments are then inoculated with a spore suspension of the fungus. Plates were stored in darkness at 19° C. and 75% relative humidity. The formulated test compound diluted in water was applied 1 day after inoculation. The leaf segments were incubated at 19° C. and 75% relative humidity under a light regime of 12 hours light/12 hours darkness in a climate cabinet and the activity of a compound was assessed as percent disease control compared to untreated when an appropriate level of disease damage appears in untreated check leaf segments (6 to 8 days after application).
(§2) The following compounds at 200 ppm in the applied formulation give at least 80% disease control in this test when compared to untreated control leaf disks under the same conditions, which show extensive disease development.

Phakopsora pachyrhizi = Phakopsora pachyrhizi / soybean / leaf disc preventative (Asian soybean rust); assay type: in vivo; conditions: foliar, 200 ppm in the applied formulation, soybean leaf disks, compared to untreated, read-out: disease control
Experimental: as §1
Soybean leaf disks are placed on water agar in multiwell plates (24-well format) and sprayed with the formulated test compound diluted in water. One day after application leaf discs are inoculated by spraying a spore suspension on the lower leaf surface. After an incubation period in a climate cabinet of 24-36 hours in darkness at 20° C. and 75% rh leaf disc are kept at 20° C. with 12 h light/day and 75% rh. The activity of a compound is assessed as percent disease control compared to untreated when an appropriate level of disease damage appears in untreated check leaf disks (12 to 14 days after application).
as §2

CCCC(=O)NCc1ccc(-c2noc(C(F)(F)F)n2)c(F)c1 [Compound 1.78, N-[[3-fluoro-4-[5-(trifluoromethyl)-1,2,4-oxadiazol-3-yl]phenyl]methyl]butanamide]
≥ 80%: inhibition of growth at 20 ppm [1] | pest or weed control at 200 ppm [2] | pest or weed control at 200 ppm [3] | pest or weed control at 200 ppm (Phakopsora pachyrhizi)

CC(=O)NCCc1ccc(-c2noc(C(F)(F)F)n2)cc1 [Compound 1.92, N-[2-[4-[5-(trifluoromethyl)-1,2,4-oxadiazol-3-yl]phenyl]ethyl]acetamide]
≥ 80%: inhibition of growth at 20 ppm [1] | pest or weed control at 200 ppm [2] | pest or weed control at 200 ppm [3] | pest or weed control at 200 ppm (Phakopsora pachyrhizi)

CCN(CC)C(=O)NCc1ccc(-c2noc(C(F)(F)F)n2)cc1 [Compound 3.12, 1,1-diethyl-3-[[4-[5-(trifluoromethyl)-1,2,4-oxadiazol-3-yl]phenyl]methyl]urea]
≥ 80%: inhibition of growth at 20 ppm [1] | pest or weed control at 200 ppm [2] | pest or weed control at 200 ppm [3] | pest or weed control at 200 ppm (Phakopsora pachyrhizi)

O=C(NCc1ccc(-c2noc(C(F)(F)F)n2)cc1)OCCCCCl [Compound 2.13, 4-chlorobutyl N-[[4-[5-(trifluoromethyl)-1,2,4-oxadiazol-3-yl]phenyl]methyl]carbamate]
≥ 80%: inhibition of growth at 20 ppm [1] | pest or weed control at 200 ppm [2] | pest or weed control at 200 ppm [3] | pest or weed control at 200 ppm (Phakopsora pachyrhizi)

C=CCNC(=O)NCc1ccc(-c2noc(C(F)(F)F)n2)cc1 [Compound 3.16, 1-allyl-3-[[4-[5-(trifluoromethyl)-1,2,4-oxadiazol-3-yl]phenyl]methyl]urea]
≥ 80%: inhibition of growth at 20 ppm [1] | pest or weed control at 200 ppm [2] | pest or weed control at 200 ppm [3] | pest or weed control at 200 ppm (Phakopsora pachyrhizi)

CONC(=O)NCc1ccc(-c2noc(C(F)(F)F)n2)cc1 [Compound 3.17, 1-methoxy-3-[[4-[5-(trifluoromethyl)-1,2,4-oxadiazol-3-yl]phenyl]methyl]urea]
≥ 80%: inhibition of growth at 20 ppm [1] | pest or weed control at 200 ppm [2] | pest or weed control at 200 ppm [3] | pest or weed control at 200 ppm (Phakopsora pachyrhizi)

CC(=O)NCc1ccc(-c2noc(C(F)(F)F)n2)c(F)c1F [Compound 1.65, N-[[2,3-difluoro-4-[5-(trifluoromethyl)-1,2,4-oxadiazol-3-yl]phenyl]methyl]acetamide]
≥ 80%: inhibition of growth at 20 ppm [1] | pest or weed control at 200 ppm [2] | pest or weed control at 200 ppm [3] | pest or weed control at 200 ppm (Phakopsora pachyrhizi)

CCC(C)NC(=O)NCc1ccc(-c2noc(C(F)(F)F)n2)cc1 (stereo not drawn) [Compound 3.7, 1-sec-butyl-3-[[4-[5-(trifluoromethyl)-1,2,4-oxadiazol-3-yl]phenyl]methyl]urea]
≥ 80%: inhibition of growth at 20 ppm [1] | pest or weed control at 200 ppm [2] | pest or weed control at 200 ppm (Phakopsora pachyrhizi)

O=C(CC(F)(F)F)NCCc1ccc(-c2noc(C(F)(F)F)n2)cc1 [Compound 1.91, 3,3,3-trifluoro-N-[2-[4-[5-(trifluoromethyl)-1,2,4-oxadiazol-3-yl]phenyl]ethyl]propanamide]
≥ 80%: inhibition of growth at 20 ppm [1] | pest or weed control at 200 ppm [2] | pest or weed control at 200 ppm (Phakopsora pachyrhizi)

CC(=O)NCC(=O)NCCc1ccc(-c2noc(C(F)(F)F)n2)cc1 [Compound 1.82, 2-acetamido-N-[2-[4-[5-(trifluoromethyl)-1,2,4-oxadiazol-3-yl]phenyl]ethyl]acetamide]
≥ 80%: pest or weed control at 200 ppm (Phakopsora pachyrhizi)

CC#CCOC(=O)NCc1ccc(-c2noc(C(F)(F)F)n2)cc1 [Compound 2.7, but-2-ynyl N-[[4-[5-(trifluoromethyl)-1,2,4-oxadiazol-3-yl]phenyl]methyl]carbamate]
≥ 80%: pest or weed control at 200 ppm [2] | pest or weed control at 200 ppm (Phakopsora pachyrhizi)

CCC(C)C(=O)NCc1ccc(-c2noc(C(F)(F)F)n2)c(F)c1F (stereo not drawn) [Compound 1.59, N-[[2,3-difluoro-4-[5-(trifluoromethyl)-1,2,4-oxadiazol-3-yl]phenyl]methyl]-2-methyl-butanamide]
≥ 80%: inhibition of growth at 20 ppm [1] | pest or weed control at 200 ppm [2] | pest or weed control at 200 ppm (Phakopsora pachyrhizi)

CC(CO)(CCl)C(=O)NCCc1ccc(-c2noc(C(F)(F)F)n2)cc1 (stereo not drawn) [Compound 1.88, 2-(chloromethyl)-3-hydroxy-2-methyl-N-[2-[4-[5-(trifluoromethyl)-1,2,4-oxadiazol-3-yl]phenyl]ethyl]propanamide]
≥ 80%: inhibition of growth at 20 ppm [1] | pest or weed control at 200 ppm (Phakopsora pachyrhizi)

O=C(NCc1ccc(-c2noc(C(F)(F)F)n2)cn1)OCCF [Compound 2.30, 2-fluoroethyl N-[[5-[5-(trifluoromethyl)-1,2,4-oxadiazol-3-yl]-2-pyridyl]methyl]carbamate]
≥ 80%: inhibition of growth at 20 ppm [1] | pest or weed control at 200 ppm [2] | pest or weed control at 200 ppm [3]

N#CCC(=O)NCc1ccc(-c2noc(C(F)(F)F)n2)c(F)c1F [Compound 1.62, 2-cyano-N-[[2,3-difluoro-4-[5-(trifluoromethyl)-1,2,4-oxadiazol-3-yl]phenyl]methyl]acetamide]
≥ 80%: inhibition of growth at 20 ppm [1] | pest or weed control at 200 ppm [2] | pest or weed control at 200 ppm [3]

CCCOC(=O)NCc1ccc(-c2noc(C(F)(F)F)n2)cn1 [Compound 2.20, propyl N-[[5-[5-(trifluoromethyl)-1,2,4-oxadiazol-3-yl]-2-pyridyl]methyl]carbamate]
≥ 80%: inhibition of growth at 20 ppm [1] | pest or weed control at 200 ppm [2] | pest or weed control at 200 ppm [3]

CC(C)C(=O)NCc1ccc(-c2noc(C(F)(F)F)n2)cn1 [Compound 1.66, 2-methyl-N-[[5-[5-(trifluoromethyl)-1,2,4-oxadiazol-3-yl]-2-pyridyl]methyl]propanamide]
≥ 80%: inhibition of growth at 20 ppm [1] | pest or weed control at 200 ppm [2] | pest or weed control at 200 ppm [3]

COCC(=O)NCc1ccc(-c2noc(C(F)(F)F)n2)cn1 [Compound 1.69, 2-methoxy-N-[[5-[5-(trifluoromethyl)-1,2,4-oxadiazol-3-yl]-2-pyridyl]methyl]acetamide]
≥ 80%: inhibition of growth at 20 ppm [1] | pest or weed control at 200 ppm [2] | pest or weed control at 200 ppm [3]
